Measurements taken from PubChem BioAssay AID977613 (Broad Institute, 2014).
The source made the active and inactive calls. No rule for the calls is given here.

Test system: Broad 7084-01 inhibitor HTS, set 2
Assay: inhibitors in Broad screen 7084-01, set 2 (AID 977613);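 also: host cells are infected with parasite promastigotes that become internalized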

| SMILES | active concentration |
| --- | --- |
| O=C(Nc1nccs1)[C@@H]1[C@@H](CO)[C@@H]2Cn3c(cccc3=O)[C@H]1N2C(=O)C1CCCC1 | > 10 µM (inactive) |
| CS(=O)(=O)N1[C@@H]2c3ccc(C4=CCCC4)c(=O)n3C[C@@H]2[C@@H](CO)[C@@H]1C(=O)NCCc1ccncc1 | > 10 µM (inactive) |
| CCCNC(=O)N1[C@H](C#N)[C@H](c2ccccc2-c2ccc(C)cc2)[C@@H]1CO | > 10 µM (inactive) |
| O=C(Nc1ccccc1)N1CC(=O)N2[C@@H](CO)[C@@H](c3ccc(C#CC4CCCCC4)cc3)[C@@H]2C1 | > 10 µM (inactive) |
| CN1C(=O)c2cc(NC(=O)C3CCOCC3)ccc2OC[C@H]2O[C@@H](CC(=O)NCCc3ccncc3)CC[C@H]21 | > 10 µM (inactive) |
| CCCNC(=O)N1[C@@H](CO)[C@@H](c2ccccc2)C12CN(C(=O)C1CCCCC1)C2 | > 10 µM (inactive) |
| O=C(C[C@@H]1CC[C@@H]2[C@H](COC[C@@H](O)CN2Cc2ccccc2)O1)NCCc1ccccc1 | > 10 µM (inactive) |
| COc1ccc2c3c([nH]c2c1)[C@@H](CO)N(S(=O)(=O)c1ccc(C)cc1)CC31CCN(C(=O)Cc2cccnc2)CC1 | > 10 µM (inactive) |
| N#C[C@@H]1[C@H](c2ccccc2-c2ccccc2)[C@H](CO)N1C(=O)Cc1ccncc1 | > 10 µM (inactive) |
| COC(=O)[C@@H]1[C@@H](CO)[C@@H]2Cn3c(cccc3=O)[C@@H]2N1CC1CCOCC1 | > 10 µM (inactive) |
| CC(=O)N1[C@@H]2c3ccc(-c4cccc(F)c4)c(=O)n3C[C@@H]2[C@@H](CO)[C@@H]1C(=O)NCCCN(C)C | > 10 µM (inactive) |
| COc1cccc(-c2ccc([C@H]3[C@H]4CNCC(=O)N4[C@H]3CO)cc2)c1 | > 10 µM (inactive) |
| CCCC(=O)N1CCC2(CC1)CN(Cc1ccc(Cl)cc1)[C@H](CO)c1[nH]c3cc(OC)ccc3c12 | > 10 µM (inactive) |
| O=C(Nc1cc(F)ccc1F)N1CCCCN2[C@H](C1)[C@H](c1ccc(C3=CCCCC3)cc1)[C@@H]2CO | > 10 µM (inactive) |
| O=C(C[C@@H]1CC[C@@H]2[C@H](COC[C@@H](O)CN2Cc2cccc(C(F)(F)F)c2)O1)NCc1ccccc1 | > 10 µM (inactive) |
| COc1ccc2c3c([nH]c2c1)[C@@H](CO)N(Cc1ccccc1F)CC31CN(CC2CC2)C1 | > 10 µM (inactive) |
| CCCNC(=O)N1[C@H](CO)[C@@H](c2ccccc2C2=CCCCC2)[C@@H]1C#N | > 10 µM (inactive) |
| CN(C)CC#Cc1ccc([C@H]2[C@H]3CN(C(=O)Nc4ccccc4F)CCCCN3[C@H]2CO)cc1 | > 10 µM (inactive) |
| CCCNC(=O)N1CC2(C1)CN(Cc1ccc(F)cc1)[C@H](CO)c1[nH]c3cc(OC)ccc3c12 | > 10 µM (inactive) |
| CCCNC(=O)N1[C@H](C#N)[C@H](c2ccccc2-c2ccccc2F)[C@@H]1CO | > 10 µM (inactive) |
| CN1C[C@@H](O)COC[C@@H]2O[C@@H](CC(=O)NC3CCCC3)CC[C@H]21 | > 10 µM (inactive) |
| N#C[C@H]1[C@@H](c2ccccc2C2=CCCCC2)[C@H](CO)N1C(=O)c1cccc(F)c1 | > 10 µM (inactive) |
| N#C[C@@H]1[C@H](c2ccccc2C2=CCCCC2)[C@H](CO)N1S(=O)(=O)c1cccc(F)c1 | > 10 µM (inactive) |
| CN(C)CCCNC(=O)C[C@H]1CC[C@H]2[C@@H](COC[C@@H](O)CN2CC2CC2)O1 | > 10 µM (inactive) |

| SMILES | active concentration |
| --- | --- |
| O=C(CC1CC1)N1CC(=O)N2[C@H](C1)[C@@H](c1ccc(/C=C/c3ccccc3)cc1)[C@@H]2CO | > 10 µM (inactive) |
| CCC(=O)N1CC(=O)N2[C@H](CO)[C@@H](c3ccc(-c4ccc(C#N)cc4)cc3)[C@@H]2C1 | > 10 µM (inactive) |
| C/C=C/c1ccc([C@@H]2[C@@H](CO)N3C(=O)CN(S(=O)(=O)c4ccccc4)C[C@H]23)cc1 | > 10 µM (inactive) |
| CN1C(=O)c2cc(NC(=O)c3cnccn3)ccc2OC[C@@H]2O[C@H](CC(=O)NCC3CCCCC3)CC[C@H]21 | > 10 µM (inactive) |
| COC(=O)c1ccc(CN2CC(=O)N3[C@H](CO)[C@H](c4ccc(-c5cccnc5)cc4)[C@H]3C2)cc1 | > 10 µM (inactive) |
| COCC(=O)N1CC2(C1)CN(C(=O)NC1CCCC1)[C@H](CO)c1c2c2ccc(OC)cc2n1C | > 10 µM (inactive) |
| CCCC#Cc1ccc([C@H]2[C@H]3CN(C(=O)c4cccnc4)CC(=O)N3[C@H]2CO)cc1 | > 10 µM (inactive) |
| CC=Cc1ccc2n(c1=O)C[C@@H]1[C@@H](CO)[C@H](C(=O)N[C@@H](C)c3ccccc3)N(C(=O)c3cnccn3)[C@H]21 (mixture of isomers) | > 10 µM (inactive) |
| CCCNC(=O)N1[C@H](CO)[C@H](c2ccccc2-c2ccccc2F)[C@@H]1C#N | > 10 µM (inactive) |
| Cc1ccccc1-c1ccccc1[C@@H]1[C@H](C#N)N(C(=O)c2cccc(F)c2)[C@H]1CO | > 10 µM (inactive) |
| CC(C)NC(=O)Nc1ccc2c(c1)C(=O)N(C)[C@H]1CC[C@H](CC(=O)NCc3ccc(F)cc3)O[C@H]1CO2 | > 10 µM (inactive) |
| COc1ccc(C#Cc2ccc([C@H]3[C@H]4CN(C(=O)c5ccc(F)cc5)CC(=O)N4[C@H]3CO)cc2)cc1 | > 10 µM (inactive) |
| OC[C@@H]1[C@H](c2ccc(C#CC3(O)CCCC3)cc2)[C@@H]2CN(Cc3cncnc3)CCCCN12 | > 10 µM (inactive) |
| COC(=O)[C@H]1[C@H](CO)[C@H]2Cn3c(ccc(-c4ccccc4F)c3=O)[C@@H]1N2 | > 10 µM (inactive) |
| O=C1CNC[C@@H]2[C@@H](c3ccc(-c4ccccc4F)cc3)[C@H](CO)N12 | > 10 µM (inactive) |
| COc1ccc2c3c([nH]c2c1)[C@@H](CO)N(S(=O)(=O)c1cn(C)cn1)CC31CCN(CC2CCCCC2)CC1 | > 10 µM (inactive) |
| O=C(C[C@@H]1CC[C@H]2[C@@H](COC[C@H](O)CN2C(=O)Nc2ccc(C(F)(F)F)cc2)O1)NCC1CC1 | > 10 µM (inactive) |
| COc1ccc2c3c([nH]c2c1)[C@H](CO)N(CC1CC1)CC31CN(C(=O)c2ccc(F)cc2)C1 | > 10 µM (inactive) |
| O=C(C[C@H]1CC[C@@H]2[C@H](COC[C@H](O)CN2Cc2cc(F)cc(F)c2)O1)NC1CCC1 | > 10 µM (inactive) |
| O=C(Cc1ccccn1)N1CC[C@@H]2[C@H](CO)Nc3ccc(-c4cccc(F)c4)cc3[C@@H]21 | > 10 µM (inactive) |
| CN1C(=O)c2cc(NS(C)(=O)=O)ccc2OC[C@H]2O[C@@H](CC(=O)N3CCOCC3)CC[C@@H]21 | > 10 µM (inactive) |
| CN(C)C(=O)c1ccc(-c2ccc3c(c2)[C@@H]2[C@@H](CCN2Cc2ccc4c(c2)OCO4)[C@@H](CO)N3)cc1 | > 10 µM (inactive) |
| CC(C)(O)C#Cc1ccc([C@H]2[C@@H](CO)N3CCCCN(S(C)(=O)=O)C[C@@H]23)cc1 | > 10 µM (inactive) |
| O=C(C1CCCCC1)N1CC2(C1)[C@H](c1ccccc1)[C@@H](CO)N2C(=O)c1cccnc1 | > 10 µM (inactive) |

| SMILES | active concentration |
| --- | --- |
| CN(C)C(=O)c1cccc(-c2ccc([C@@H]3[C@@H](CO)N4C(=O)CN(C(=O)C5CCC5)C[C@@H]34)cc2)c1 | > 10 µM (inactive) |
| COc1ccc2c3c([nH]c2c1)[C@@H](CO)NCC31CN(C(=O)Nc2ccc3c(c2)OCO3)C1 | > 10 µM (inactive) |
| CN1C(=O)c2cc(NC(=O)Nc3ccccc3Cl)ccc2OC[C@H]2O[C@@H](CC(=O)NCCCN3CCOCC3)CC[C@H]21 | > 10 µM (inactive) |
| O=C(C1CCOCC1)N1CC(=O)N2[C@@H](CO)[C@H](c3ccc(-c4cccnc4)cc3)[C@@H]2C1 | > 10 µM (inactive) |
| COc1cccc(CN2CCCCN3[C@H](C2)[C@H](c2ccc(-c4cccnc4)cc2)[C@@H]3CO)c1 | > 10 µM (inactive) |
| CN1C(=O)c2cc(NC(=O)c3cccc(F)c3)ccc2OC[C@H]2O[C@@H](CC(=O)NCC3CCCCC3)CC[C@@H]21 | > 10 µM (inactive) |
| O=C(NC1CCCC1)N1CCCCN2[C@H](CO)[C@@H](c3ccc(-c4cccnc4)cc3)[C@@H]2C1 | > 10 µM (inactive) |
| COc1ccc2c3c(n(C)c2c1)[C@H](CO)N(C(=O)Nc1ccccc1F)CC31CN(C(=O)c2ccccc2F)C1 | > 10 µM (inactive) |
| N#C[C@@H]1[C@@H](c2ccccc2-c2ccc(F)cc2)[C@H](CO)N1C(=O)Cc1cccnc1 | > 10 µM (inactive) |
| COc1ccc2c3c(n(C)c2c1)[C@@H](CO)N(CC1CCOCC1)CC31CN(Cc2nccs2)C1 | > 10 µM (inactive) |
| O=S(=O)(c1ccccc1)N1CCCCN2[C@H](CO)[C@@H](c3ccc(C#CC4CCCC4)cc3)[C@H]2C1 | > 10 µM (inactive) |
| COc1ccccc1CNC(=O)C[C@@H]1CC[C@@H]2[C@H](COC[C@H](O)CN2C(=O)Nc2ccccc2)O1 | > 10 µM (inactive) |
| COC(=O)C[C@H]1CC[C@@H]2[C@@H](COc3ccc(NS(=O)(=O)c4ccccc4Cl)cc3C(=O)N2C)O1 | > 10 µM (inactive) |
| CN1[C@H](CO)[C@H]2c3ccccc3N(C(=O)Nc3ccccc3F)C[C@H]21 | > 10 µM (inactive) |
| N#C[C@H]1[C@H](c2ccccc2-c2ccccc2F)[C@H](CO)N1C(=O)C1CCC1 | > 10 µM (inactive) |
| Cc1ccccc1S(=O)(=O)N1CC[C@@H]2[C@@H](CO)N(C)c3ccc(-c4cccc(C#N)c4)cc3[C@@H]21 | > 10 µM (inactive) |
| O=C(c1cccnc1)N1CC2(C1)[C@H](c1ccccc1)[C@@H](CO)N2Cc1ccc(Cl)cc1 | > 10 µM (inactive) |
| O=C(Nc1ccccc1)N1CC(=O)N2[C@@H](CO)[C@H](c3ccc(C#CC4CCCCC4)cc3)[C@@H]2C1 | > 10 µM (inactive) |
| Cn1cnc(S(=O)(=O)N2C[C@@H](O)COC[C@H]3O[C@@H](CC(=O)NC4CCCC4)CC[C@@H]32)c1 | > 10 µM (inactive) |
| COc1ccc2c3c([nH]c2c1)[C@@H](CO)N(C(=O)Nc1c(C)noc1C)CC31CN(CC2CCOCC2)C1 | > 10 µM (inactive) |
| CCC(=O)N1[C@@H]2Cn3c(ccc(-c4ccc(F)cc4)c3=O)[C@H]1[C@@H](C(=O)OC)[C@@H]2CO | > 10 µM (inactive) |
| COc1cccc(C#Cc2ccc([C@H]3[C@H](CO)N4C(=O)CN(C(=O)Cc5cccnc5)C[C@@H]34)cc2)c1 | > 10 µM (inactive) |
